According to ChEMBL document CHEMBL3244120, “Monomethylthio analogues of 1-(2,4,5-trimethoxyphenyl)-2-aminopropane” (J Med Chem, 1977):

Experiments:
[1] = system: Brain; assay: Drug uptake in Sprague-Dawley rat brain assessed as R to S enantiomeric ratio at 30 mg/kg, ip after 30 mins by electron-capture gas chromatographic analysis; assay type: ADME, organism-based; parameters: dose 30 mg/kg, route intraperitoneal; conditions: in vivo, 0.5 h
[2] = system: Oryctolagus cuniculus; assay: Hyperthermic activity in New Zealand rabbit assessed as increase in rectal temperature measured as time to reach peak effect at 7.1 umol/kg administered in marginal ear vein as solution of amine hydrochloride in nonpyrogenic saline; assay type: functional, Rectum
[3] = system: Brain; assay: Drug uptake in Sprague-Dawley rat brain assessed as R to S enantiomeric ratio at 30 mg/kg, ip after 15 mins by electron-capture gas chromatographic analysis; assay type: ADME, organism-based; parameters: dose 30 mg/kg, route intraperitoneal; conditions: in vivo, 0.25 h
[4] = system: Oryctolagus cuniculus; assay: Hyperthermic activity in New Zealand rabbit assessed as increase in rectal temperature measured as time to reach peak effect at 14.2 umol/kg administered in marginal ear vein as solution of amine hydrochloride in nonpyrogenic saline; assay type: functional, Rectum
[5] = system: Oryctolagus cuniculus; assay: Hyperthermic activity in New Zealand rabbit at 0.25 to 21.2 umol/kg administered in marginal ear vein as solution of amine hydrochloride in nonpyrogenic saline by time-temperature curve integration method relative to l-(2,5-dimethoxy-4-methylphenyl)-2-aminopropane; assay type: functional
[6] = system: Oryctolagus cuniculus; assay: Hyperthermic activity in New Zealand rabbit assessed as mean maximum rise in rectal temperature at 14.2 umol/kg administered in marginal ear vein as solution of amine hydrochloride in nonpyrogenic saline; assay type: functional, Rectum
[7] = system: Brain; assay: Drug uptake in Sprague-Dawley rat brain assessed as R to S enantiomeric ratio at 30 mg/kg, ip after 60 mins by electron-capture gas chromatographic analysis; assay type: ADME, organism-based; parameters: dose 30 mg/kg, route intraperitoneal; conditions: in vivo, 1 h
[8] = system: Oryctolagus cuniculus; assay: Hyperthermic activity in New Zealand rabbit assessed as mean maximum rise in rectal temperature at 0.25 to 21.2 umol/kg administered in marginal ear vein as solution of amine hydrochloride in nonpyrogenic saline relative to l-(2,5-dimethoxy-4-methylphenyl)-2-aminopropane; assay type: functional, Rectum
[9] = system: Oryctolagus cuniculus; assay: Hyperthermic activity in New Zealand rabbit assessed as dose required for 1 degC rise in rectal temperature administered in marginal ear vein as solution of amine hydrochloride in nonpyrogenic saline; assay type: functional, Rectum
[10] = system: Oryctolagus cuniculus; assay: Hyperthermic activity in New Zealand rabbit assessed as mean maximum rise in rectal temperature at 7.1 umol/kg administered in marginal ear vein as solution of amine hydrochloride in nonpyrogenic saline; assay type: functional, Rectum
[11] = system: Oryctolagus cuniculus; assay: Hyperthermic activity in New Zealand rabbit assessed as increase in rectal temperature measured as time to reach peak effect at 21.3 umol/kg administered in marginal ear vein as solution of amine hydrochloride in nonpyrogenic saline; assay type: functional, Rectum
[12] = system: Oryctolagus cuniculus; assay: Hyperthermic activity in New Zealand rabbit assessed as mean maximum rise in rectal temperature at 5.3 umol/kg administered in marginal ear vein as solution of amine hydrochloride in nonpyrogenic saline; assay type: functional, Rectum
[13] = system: Oryctolagus cuniculus; assay: Hyperthermic activity in New Zealand rabbit assessed as increase in rectal temperature measured as time to reach peak effect at 5.3 umol/kg administered in marginal ear vein as solution of amine hydrochloride in nonpyrogenic saline; assay type: functional, Rectum
[14] = system: Oryctolagus cuniculus; assay: Hyperthermic activity in New Zealand rabbit assessed as mean maximum rise in rectal temperature at 10.6 umol/kg administered in marginal ear vein as solution of amine hydrochloride in nonpyrogenic saline; assay type: functional, Rectum
[15] = system: Oryctolagus cuniculus; assay: Hyperthermic activity in New Zealand rabbit assessed as mean maximum rise in rectal temperature at 21.3 umol/kg administered in marginal ear vein as solution of amine hydrochloride in nonpyrogenic saline; assay type: functional, Rectum
[16] = system: Oryctolagus cuniculus; assay: Hyperthermic activity in New Zealand rabbit assessed as increase in rectal temperature measured as time to reach peak effect at 10.6 umol/kg administered in marginal ear vein as solution of amine hydrochloride in nonpyrogenic saline; assay type: functional, Rectum
[17] = system: Oryctolagus cuniculus; assay: Hyperthermic activity in New Zealand rabbit assessed as increase in rectal temperature measured as time to reach peak effect at 0.22 umol/kg administered in marginal ear vein as solution of amine hydrochloride in nonpyrogenic saline; assay type: functional, Rectum
[18] = system: Oryctolagus cuniculus; assay: Hyperthermic activity in New Zealand rabbit assessed as increase in rectal temperature measured as time to reach peak effect at 2 umol/kg administered in marginal ear vein as solution of amine hydrochloride in nonpyrogenic saline; assay type: functional, Rectum
[19] = system: Oryctolagus cuniculus; assay: Hyperthermic activity in New Zealand rabbit assessed as mean maximum rise in rectal temperature at 2 umol/kg administered in marginal ear vein as solution of amine hydrochloride in nonpyrogenic saline; assay type: functional, Rectum
[20] = system: Oryctolagus cuniculus; assay: Hyperthermic activity in New Zealand rabbit assessed as mean maximum rise in rectal temperature at 0.67 umol/kg administered in marginal ear vein as solution of amine hydrochloride in nonpyrogenic saline; assay type: functional, Rectum
[21] = system: Oryctolagus cuniculus; assay: Hyperthermic activity in New Zealand rabbit assessed as increase in rectal temperature measured as time to reach peak effect at 0.67 umol/kg administered in marginal ear vein as solution of amine hydrochloride in nonpyrogenic saline; assay type: functional, Rectum
[22] = system: Brain; assay: Drug uptake in Sprague-Dawley rat brain assessed as R to S enantiomeric ratio at 30 mg/kg, ip after 120 mins by electron-capture gas chromatographic analysis; assay type: ADME, organism-based; parameters: dose 30 mg/kg, route intraperitoneal; conditions: in vivo, 2 h
[23] = system: Oryctolagus cuniculus; assay: Hyperthermic activity in New Zealand rabbit assessed as mean maximum rise in rectal temperature at 0.22 umol/kg administered in marginal ear vein as solution of amine hydrochloride in nonpyrogenic saline; assay type: functional, Rectum
[24] = system: Brain; assay: Drug uptake in Sprague-Dawley rat brain assessed as R to S enantiomeric ratio at 15 mg/kg, ip after 5 mins by electron-capture gas chromatographic analysis; assay type: ADME, organism-based; parameters: dose 15 mg/kg, route intraperitoneal; conditions: in vivo
[25] = system: Brain; assay: Drug uptake in Sprague-Dawley rat brain assessed as R to S enantiomeric ratio at 15 mg/kg, ip after 30 mins by electron-capture gas chromatographic analysis; assay type: ADME, organism-based; parameters: dose 15 mg/kg, route intraperitoneal; conditions: in vivo, 0.5 h
[26] = system: Oryctolagus cuniculus; assay: Hyperthermic activity in New Zealand rabbit assessed as mean maximum rise in rectal temperature at 0.50 umol/kg administered in marginal ear vein as solution of amine hydrochloride in nonpyrogenic saline; assay type: functional, Rectum
[27] = system: Brain; assay: Drug uptake in Sprague-Dawley rat brain assessed as R to S enantiomeric ratio at 15 mg/kg, ip after 120 mins by electron-capture gas chromatographic analysis; assay type: ADME, organism-based; parameters: dose 15 mg/kg, route intraperitoneal; conditions: in vivo, 2 h
[28] = system: Oryctolagus cuniculus; assay: Hyperthermic activity in New Zealand rabbit assessed as mean maximum rise in rectal temperature at 1 umol/kg administered in marginal ear vein as solution of amine hydrochloride in nonpyrogenic saline; assay type: functional, Rectum
[29] = system: Oryctolagus cuniculus; assay: Hyperthermic activity in New Zealand rabbit assessed as mean maximum rise in rectal temperature at 0.25 umol/kg administered in marginal ear vein as solution of amine hydrochloride in nonpyrogenic saline; assay type: functional, Rectum
[30] = system: Oryctolagus cuniculus; assay: Hyperthermic activity in New Zealand rabbit assessed as increase in rectal temperature measured as time to reach peak effect at 1 umol/kg administered in marginal ear vein as solution of amine hydrochloride in nonpyrogenic saline; assay type: functional, Rectum
[31] = system: Oryctolagus cuniculus; assay: Hyperthermic activity in New Zealand rabbit assessed as increase in rectal temperature measured as time to reach peak effect at 0.25 umol/kg administered in marginal ear vein as solution of amine hydrochloride in nonpyrogenic saline; assay type: functional, Rectum
[32] = system: Oryctolagus cuniculus; assay: Hyperthermic activity in New Zealand rabbit assessed as increase in rectal temperature measured as time to reach peak effect at 0.50 umol/kg administered in marginal ear vein as solution of amine hydrochloride in nonpyrogenic saline; assay type: functional, Rectum
[33] = system: Brain; assay: Drug uptake in Sprague-Dawley rat brain assessed as R to S enantiomeric ratio at 15 mg/kg, ip after 15 mins by electron-capture gas chromatographic analysis; assay type: ADME, organism-based; parameters: dose 15 mg/kg, route intraperitoneal; conditions: in vivo, 0.25 h
[34] = system: Brain; assay: Drug uptake in Sprague-Dawley rat brain assessed as R to S enantiomeric ratio at 15 mg/kg, ip after 60 mins by electron-capture gas chromatographic analysis; assay type: ADME, organism-based; parameters: dose 15 mg/kg, route intraperitoneal; conditions: in vivo, 1 h

## COc1cc(CC(C)N)c(SC)cc1OC.Cl (racemic)
[1]
  Ratio: 1.09
[2]
  Time: 105 min
[3]
  Ratio: 1.14
[4]
  Time: 75 min
[5]
  fold change (FC): 0.022
[6]
  T: 1.01 °C
[7]
  Ratio: 1.43
[8]
  fold change (FC): 0.017
[9]
  Activity: 14 µmol/kg
[10]
  T: 0.82 °C

## COc1cc(OC)c(SC)cc1CC(C)N.Cl (racemic)
[11]
  Time: 180 min
[1]
  Ratio: 1.11
[12]
  T: 0.6 °C
[13]
  Time: 120 min
[14]
  T: 1.09 °C
[3]
  Ratio: 1.1
[15]
  T: 1.62 °C
[5]
  fold change (FC): 0.039
[7]
  Ratio: 1.35
[16]
  Time: 135 min
[8]
  fold change (FC): 0.028
[9]
  Activity: 9.77 µmol/kg

## COc1cc(SC)c(OC)cc1CC(C)N.Cl (racemic)
[1]
  Ratio: 1.14
[17]
  Time: 120 min
[3]
  Ratio: 1.54
[5]
  fold change (FC): 0.64
[7]
  Ratio: 1.23
[18]
  Time: 195 min
[19]
  T: 2.31 °C
[20]
  T: 1.15 °C
[21]
  Time: 165 min
[22]
  Ratio: 1.62
[8]
  fold change (FC): 0.54
[23]
  T: 0.6 °C
[9]
  Activity: 0.5 µmol/kg

## COc1cc(CC(C)N)c(OC)cc1C.Cl (racemic)
[24]
  Ratio: 0.95
[25]
  Ratio: 1.46
[26]
  T: 1.98 °C
[27]
  Ratio: 1.34
[28]
  T: 2.85 °C
[29]
  T: 0.8 °C
[5]
  fold change (FC): 1
[30]
  Time: 165 min
[31]
  Time: 135 min
[32]
  Time: 195 min
[8]
  fold change (FC): 1
[33]
  Ratio: 1.06
[34]
  Ratio: 1.55
[9]
  Activity: 0.27 µmol/kg

## CCN(CC)C(=O)[C@@H]1C=C2c3cccc4[nH]cc(c34)C[C@H]2N(C)C1 [LYSERGIDE]
[8]
  fold change (FC): 33

## COc1cc(CCN)cc(OC)c1OC [MESCALINE]
[8]
  fold change (FC): 0.0006
